The source of these data is US20230399661A1, “SHUTTLE AGENT PEPTIDES OF MINIMAL LENGTH AND VARIANTS THEREOF ADAPTED FOR TRANSDUCTION OF CAS9-RNP AND OTHER NUCLEOPROTEIN CARGOS” (priority 2020, published 2023).

Holding throughout (assay type): cell-based, Human
For assay [1], the system named is CFF-16HBEge cells. In words: Cas9-RNP delivery, B2M genome editing. The note with it: for genome editing with Cas9-RNP as cargo: B2M knockout, versus non-treated negative control; for genome editing (Cas9-RNP): NGS, compared to non-treated cells. The protocol: HeLa cells were plated (10 000 cells/well) in a 96 well-plate the day prior to the experiment in DMEM containing 10% FBS. CFF-16HBEge cells were plated (10 000 cells/well) in a 96 well-plate the day prior to the experiment in Alpha-MEM containing 10% FBS.
(§1) For Cas9-RNP or ABE-Cas9-RNP transduction, a mix of Cas9-NLS or ABE-Cas9 recombinant protein (2.5 μM) complexed with a crRNA/tracrRNA (2 μM) targeting the beta-2 microglobulin (B2M) gene were co-incubated with 10-20 μM of synthetic peptide shuttle agent in a final volume of 50 μL completed with PBS. Cells were washed once with PBS and the shuttle/Cas9-RNP complex was added to the cells for and incubated for 60 to 90 seconds. Then 100 μL of DMEM (HeLa) or Alpha-MEM (CFF-16HBEge) containing 10% FBS was added to the mix. Cells were then immediately washed once with PBS and incubated in DMEM (HeLa) or Alpha-MEM (CFF-16HBEge) containing 10% FBS.
Genome editing events resulting in the absence of B2M protein (knockout) at the cell surface were determined by flow cytometry 6 days post-transduction. Cells were washed once with PBS and incubated with the anti-B2 microglobulin antibody (PE conjugated) (0.5 μL of anti-B2M-PE in […] 0.5% BSA/PBS) for 45 minutes at room temperature. Cells were washed twice with PBS and detached with 50 µL of Trypsin-EDTA for 10 minutes at 37° C. then inactivated by adding 100 μL of media containing 10% FBS. The percentage of knockout cells (cells without B2M antibody signal) was determined by flow cytometry.
A similar genome editing experiment as in Example 6 was performed in the Human Bronchial Epithelial cell line model of cystic fibrosis, CFF-16HBEge.
(§2) Further transduction experiments in CFF-16HBEge cells were performed to compare the ability of shuttle agents to deliver functional Cas9-RNP genome editing versus ABE-Cas9-RNP base editing complexes. Variants of the shuttle agent FSD10 (FIG. 8A) were tested in parallel, and genome editing/base editing results as evaluated by next-generation sequencing (NGS) are shown in FIGS. 8B and 8C for Cas9-RNP and ABE-Cas9-RNP, respectively.

Assay [2] concerns CFF-16HBEge cells. Kind of assay: ABE-Cas9-RNP delivery, base editing evaluated by next-generation sequencing. The settings on record: NGS, compared to non-treated cells. As for the experimental part:
as §1, §2

Assay [3] relates to HeLa cells. Kind of assay: GFP-NLS transduction in the presence or absence of Cas9-RNP complex, flow cytometry. Further details: GFP transduction efficiency: concentration or dose not given beside the values. The settings on record: for resistance/sensitivity of GFP transduction to inhibition by Cas9-RNP: presence vs absence of Cas9-RNP. As for the experimental part: HeLa cells were plated (20 000 cells/well) in a 96 well-plate the day prior to the experiment in DMEM containing 10% FBS. A mix was prepared containing a synthetic peptide shuttle agent (10-30 μM), the GFP-NLS (10 μM) with or without a Cas9-NLS recombinant protein (2.5 μM) complexed with a crRNA/tracrRNA (2 μM) targeting the beta-2 microglobulin (B2M) gene and completed to 50 μL with PBS. Cells were washed once with PBS and the shuttle/GFP-NLS/Cas9-RNP mix was added to the cells and incubated for one minute. Then 100 μL DMEM containing 10% FBS was added to the mix. Cells were then immediately washed once with PBS and incubated in DMEM containing 10% FBS for two hours. Cells were the analyzed by flow cytometry.
To better understand the inhibitory effect of Cas9-RNP on shuttle agent transduction activity, HeLa cells were incubated with different peptides/shuttle agents and GFP cargo, in the presence or absence of Cas9-RNP, and delivery of GFP was assessed by flow cytometry, as described in Example 1. […] For some shuttle agents, the effect was particularly striking. For example, the GFP transduction efficiency for FSD268 decreased from 92% to 29%, the GFP transduction efficiency for FSD250 decreased from 83% to 13%, the GFP transduction efficiency for FSD10 decreased from 76% to 22%, and the GFP transduction efficiency for FSD395 decreased from 91% to 17%. […] Structure-activity relationships were explored further by repeating the above transduction experiments with shuttle agent variants sharing the same “core” amphipathic cationic alpha helical region as FSD10-15 (FIG. 4A), CM18 (FIG. 4B), and FSD356 (FIG. 4C).
On the technique in general: A flow cytometer gives signals particle by particle.

In the case of “FSD322: synthetic peptide shuttle agent (KWKLAKAWSRALKLWGGSGGGSARAQARQA; FSD322)”, the “genome editing with Cas9-RNP as cargo” value in assay [1] is “failed to show any increase in genome editing”.

For the substance “FSD10-Cter: negative control peptide consisting of the C-terminal cationic portion of FSD10 alone (YARALRRQARTG; FSD10-Cter)”, the “genome editing (Cas9-RNP)” value in assay [1] is given as “did not exhibit any detectable genome editing”. Moreover, the “base editing (ABE-Cas9-RNP)” value in assay [2] was “did not exhibit any detectable genome editing or base editing”.

On to “FSD10: synthetic peptide shuttle agent; FSD10-15 core, glycine/serine-rich linker and second cationic domain (KWKLARAFARAIKKLGGSGGGSYARALRRQARTG; FSD10)”, for which the “genome editing with Cas9-RNP as cargo” value in assay [1] is given as “failed to show any increase in genome editing”. The GFP transduction efficiency in assay [3] (absence of Cas9-RNP) is reported as 76%; in assay [3] (presence of Cas9-RNP), 22%. Further, in assay [3], the “resistance/sensitivity of GFP transduction to inhibition by Cas9-RNP” value is on record as “more sensitive to inhibition by Cas9-RNP”.

In the case of “FSD397: synthetic peptide shuttle agent (KLKLAKALAKALKKLGGSGGGSQAKAQAKQAK; FSD397)”, in assay [1], the “genome editing with Cas9-RNP as cargo” value is given as “failed to show any increase in genome editing”.

As to “FSD374: core amphipathic cationic domain (as FSD174) flanked by short segments of non-cationic hydrophilic residues (GGSGGGSLLKIWSRLIKIWTQGRRLGGSGGGS; FSD374)”, the “genome editing with Cas9-RNP as cargo” value in assay [1] is “significant genome editing”. The “resistance/sensitivity of GFP transduction to inhibition by Cas9-RNP” value in assay [3] is listed as “virtually the same GFP transduction efficiency in the presence or absence of Cas9-RNP”.

Take “FSD174: synthetic peptide shuttle agent having higher C-terminal positive charge density (LLKIWSRLIKIWTQGRRLGGSGGGSARAARQAR; FSD174)”: the GFP transduction efficiency was 66% in assay [3] (absence of Cas9-RNP) and 11% in assay [3] (presence of Cas9-RNP). Moreover, the “resistance/sensitivity of GFP transduction to inhibition by Cas9-RNP” value was “particularly sensitive to the inhibitory effect of Cas9-RNP” in assay [3] and “generally more sensitive to Cas9-RNP inhibition” in assay [3] (listed as FSD 174).

“FSD268: synthetic peptide shuttle agent (KWKLLKLWSRLLKLWGGSGGGSQARAQARQAR; FSD268)”: the GFP transduction efficiency in assay [3] (absence of Cas9-RNP) was 92%; in assay [3] (presence of Cas9-RNP) it was 29%.

“FSD246: shuttle agent with N-terminal segment identical to FSD356; increased C-terminal positive charge density (KWKLLKLWSRLLKLWGGSGGGSYARAAARKAKRA; FSD246)”: the “resistance/sensitivity of GFP transduction to inhibition by Cas9-RNP” value in assay [3] is listed as “increased shuttle agent sensitivity to inhibition by Cas9-RNP”.

For “FSD395: synthetic peptide shuttle agent (KLKLLKLLLKLLKKLGGSGGGSQAKAQAKQAK; FSD395)”, in assay [1], the “genome editing with Cas9-RNP as cargo” value is reported as “failed to show any increase in genome editing”. The GFP transduction efficiency in assay [3] (absence of Cas9-RNP) is 91%; in assay [3] (presence of Cas9-RNP), 17%.

Regarding “Linker-(FSD10-Cter)-Linker: negative control peptide: C-terminal cationic portion of FSD10 flanked by glycine/serine-rich linkers (GGSGGGSYARALRRQARTGGGSGGGS; Linker-(FSD10-Cter)-Linker)”, the “genome editing (Cas9-RNP)” value in assay [1] was “did not exhibit any detectable genome editing”. In addition, the “base editing (ABE-Cas9-RNP)” value in assay [2] is “did not exhibit any detectable genome editing or base editing”.

In the case of “FSD10-15: 15-amino acid fragment of several longer shuttle agents, including FSD375, FSD10 and FSD210 (KWKLARAFARAIKKL; FSD10-15)”, the GFP transduction efficiency in assay [3] (absence of Cas9-RNP) was 21%; in assay [3] (presence of Cas9-RNP), 24%. The “resistance/sensitivity of GFP transduction to inhibition by Cas9-RNP” value in assay [3] is on record as “more resistant”.

For the substance “FSD356: shuttle agent whose last three C-terminal residues are QAG (KWKLLKLWSRLLKLWGGSGGGSQAG; FSD356)”, the GFP transduction efficiency in assay [3] (presence of Cas9-RNP) was 51%. The “resistance/sensitivity of GFP transduction to inhibition by Cas9-RNP” value in assay [3] is on record as “more resistant”.

Consider “FSD296: shuttle agent with N-terminal segment identical to FSD356; polar residues (e.g., Q) between the C-terminal positively-charged residues (KWKLLKLWSRLLKLWQQGGSGGGSQARAQARQAR; FSD296)”, for which, in assay [3], the “resistance/sensitivity of GFP transduction to inhibition by Cas9-RNP” value is recorded as “increased shuttle agent sensitivity to inhibition by Cas9-RNP”.

Consider “His-CM18-TAT: CM18-based shuttle agent having high C-terminal positive charge density (HHHHHHKWKLFKKIGAVLKVLTTGYGRKKRRQRRR; His-CM18-TAT)”, for which the “resistance/sensitivity of GFP transduction to inhibition by Cas9-RNP” value in assay [3] was “particularly marked sensitivities to inhibition by Cas9-RNP”.

Consider “FSD440: CM18 with flanking glycine/serine-rich residues (GGSGGGSKWKLFKKIGAVLKVLTTGGGSGGGS; FSD440)”, for which the GFP delivery score in assay [3] (FIGS. 3 and 4B, presence or absence of Cas9-RNP not stated) is 3.6. Besides, the “resistance/sensitivity of GFP transduction to inhibition by Cas9-RNP” value in assay [3] is “retained the peptide's resistance to Cas9-RNP”.

Take “FSD210: shuttle agent: FSD10-15 core, C-terminal glycine/serine-rich linker fused to a second cationic domain (KWKLARAFARAIKKLGGSGGGSRRLKAKRAKA; FSD210)”: in assay [3], the “resistance/sensitivity of GFP transduction to inhibition by Cas9-RNP” value was “more sensitive to inhibition by Cas9-RNP”.

Regarding “FSD432: shuttle agent: FSD10-15 core, C-terminal glycine/serine-rich linker fused to a second cationic domain (KWKLARAFARAIKKLGGSGGGSQAKAQAKQAK; FSD432)”, the “resistance/sensitivity of GFP transduction to inhibition by Cas9-RNP” value in assay [3] is “more sensitive to inhibition by Cas9-RNP”.
